{
  "source": "patent US20250026723A1",
  "about": "“Cannabinoid Receptor Modulating Compounds” (THE UNITED STATES OF AMERICA, as represented by the …, priority 2021, published 2025)",
  "key": {"Caco-2": {"test_system": "Caco-2", "test": "Caco-2 permeability assay", "conditions": "Caco-2, assay conc 10 μM"}, "[1]": {"molecular_target": "cannabinoid receptor 1 (CB1R) (Homo sapiens (Human), UniProt P21554)", "test": "CB1R binding affinity (inhibition constant Ki)"}, "in vitro": {"test": "in vitro", "conditions": "human, Caco-2"}, "CB1 [2]": {"molecular_target": "T1, CB1 (Homo sapiens (Human), UniProt P21554)", "test": "CB1 antagonism assay, green (β-Arrestin) NOMAD biosensor, MPXNomad-CB1 HEK293 cells", "assay_type": "cell-based", "protocol": "(§1) CB1 antagonism assays were conducted on red (cAMP) and green ([…]) NOMAD biosensors using MPXNomad-CB1 HEK293 cells using commercial kits and protocols provided by Innoprot (Derio, Spain)."}, "[3]": {"test": "Caco-2 permeability assay", "conditions": "human, Caco-2"}, "CB1 [4]": {"molecular_target": "T1, CB1", "test": "CB1 antagonism assay, red (cAMP) NOMAD biosensor, MPXNomad-CB1 HEK293 cells", "assay_type": "cell-based", "protocol": "as §1"}, "CB1 [5]": {"molecular_target": "T1, CB1", "test": "Cannabinoid receptor modulator activity (Table 3, in words)"}},
  "note": "Like-named read-outs stand apart in the source and are kept apart here.",
  "data": [
    {"smiles": "NC(=O)C[Se]C(=NS(=O)(=O)c1ccc(C(F)(F)F)cc1)N1CC(c2ccccc2)C(c2ccc(Cl)cc2)=N1", "note": "(stereo not shown) [Compound 20]", "values": [
      {"measurement": "Mean (B-A/A-B) Efflux Ratio", "setting": "Caco-2", "value": 0.25},
      {"measurement": "Mean Papp A-B", "setting": "Caco-2", "value": "0.183 10^−6 cm/s"},
      {"measurement": "Mean Papp B-A", "setting": "Caco-2", "value": "0.0451 10^−6 cm/s"},
      {"measurement": "Ki", "setting": "[1]; read-out: CB1R Ki", "value": 14.4, "unit": "nM"}
    ]},
    {"smiles": "C[Se]C(=NS(=O)(=O)c1ccc(C(F)(F)F)cc1)N1CC(c2ccccc2)C(c2ccc(Cl)cc2)=N1", "note": "(stereo not shown) [Compound 12]", "values": [
      {"measurement": "Ki", "setting": "[1]; read-out: CB1R Ki", "value": 3.3, "unit": "nM"}
    ]},
    {"smiles": "COCCSC(=NS(=O)(=O)c1ccc(C(F)(F)F)cc1)N1CC(c2ccccc2)C(c2ccc(Cl)cc2)=N1", "note": "(stereo not shown) [Compound 1]", "values": [
      {"measurement": "Ki", "setting": "[1]; read-out: CB1R Ki", "value": 6.9, "unit": "nM"}
    ]},
    {"smiles": "COC(=O)[C@@H](C)CS/C(=N\\S(=O)(=O)c1ccc(C(F)(F)F)cc1)N1CC(c2ccccc2)C(c2ccc(Cl)cc2)=N1", "note": "(stereo partly shown) [Compound 3A]", "values": [
      {"measurement": "Papp A→B at 10 μM", "setting": "in vitro", "value": 0.0096, "unit": "×10⁻⁶ cm/s"},
      {"measurement": "Papp B→A at 10 μM", "setting": "in vitro", "value": 0.0121, "unit": "×10⁻⁶ cm/s"},
      {"measurement": "IC50", "setting": "CB1 [2]", "value": 0.04, "unit": "nM"},
      {"measurement": "efflux ratio at 10 μM", "setting": "[3]", "value": 1.26},
      {"measurement": "Ki", "setting": "[1]", "value": 7.7, "unit": "nM"},
      {"measurement": "IC50", "setting": "CB1 [4]", "value": 0.61, "unit": "nM"}
    ]},
    {"smiles": "NC(=O)CSC(=NS(=O)(=O)c1ccc(C(F)(F)F)cc1)N1CC(c2ccccc2)C(c2ccc(Cl)cc2)=N1", "note": "(stereo not shown) [Compound 3]", "values": [
      {"measurement": "Ki", "setting": "[1]; read-out: CB1R Ki", "value": 21.2, "unit": "nM"}
    ]},
    {"smiles": "COC(=O)C(C)C[Se]C(=NS(=O)(=O)c1ccc(Cl)cc1)N1CC(c2ccccc2)C(c2ccc(Cl)cc2)=N1", "note": "(stereo not shown) [Compound 23]", "values": [
      {"measurement": "Ki", "setting": "[1]; read-out: CB1R Ki", "value": 12.1, "unit": "nM"}
    ]},
    {"smiles": "O=C(CCS/C(=N\\S(=O)(=O)c1ccc(C(F)(F)F)cc1)N1CC(c2ccccc2)C(c2ccc(Cl)cc2)=N1)NO", "note": "(stereo not shown) [Compound 3B]", "values": [
      {"measurement": "Activity at CB1 (in words)", "setting": "CB1 [5]", "value": "antagonist, potential"}
    ]},
    {"smiles": "N#CCCCSC(=NS(=O)(=O)c1ccc(C(F)(F)F)cc1)N1CC(c2ccccc2)C(c2ccc(Cl)cc2)=N1", "note": "(stereo not shown) [Compound 2]", "values": [
      {"measurement": "IC50", "setting": "CB1 [2]; MPXNomad-CB1 HEK293 cells, CB1 antagonism, read-out: β-Arrestin IC50", "value": 1800, "unit": "nM"},
      {"measurement": "Mean (B-A/A-B) Efflux Ratio", "setting": "Caco-2", "value": 2.09},
      {"measurement": "Mean Papp A-B", "setting": "Caco-2", "value": "0.00561 10^−6 cm/s"},
      {"measurement": "Mean Papp B-A", "setting": "Caco-2", "value": "0.0118 10^−6 cm/s"},
      {"measurement": "Ki", "setting": "[1]; read-out: CB1R Ki", "value": 3.4, "unit": "nM"},
      {"measurement": "IC50", "setting": "CB1 [4]; MPXNomad-CB1 HEK293 cells, CB1 antagonism, read-out: cAMP IC50", "value": 2490, "unit": "nM"}
    ]},
    {"smiles": "CSC(=NS(=O)(=O)c1ccc(C(F)(F)F)cc1)N1CC(c2ccccc2)C(c2ccc(Cl)cc2)=N1", "note": "(stereo not shown) [Compound 19]", "values": [
      {"measurement": "Ki", "setting": "[1]; read-out: CB1R Ki", "value": 16.6, "unit": "nM"}
    ]}
  ]
}
